Results as given in patent publication US10222368B2 (priority 2012, dated 2019).

Molecular target: T1, mu opiate receptor (MOR) (Rattus norvegicus, UniProt P33535)
T1 construct: from tissue; host or cells: striatal tissue (membrane preparation)
Assay: MOR agonist activity using [35S]GTPγS binding assay in striatal membranes
Type: biochemical
Settings: for MOR agonist activity, [35S]GTPγS binding, FLNA-binding compound as agonist at 0.1 μM / MOR agonist activity, [35S]GTPγS binding, 1 μM + BFNA / MOR agonist activity, [35S]GTPγS binding, FLNA-binding compound as agonist at 1 μM: striatal membranes; for MOR agonist activity, [35S]GTPγS binding, FLNA-binding compound as agonist at 0.1 μM / MOR agonist activity, [35S]GTPγS binding, FLNA-binding compound as agonist at 1 μM: Series C-2; for MOR agonist activity, [35S]GTPγS binding, 1 μM + BFNA: 1 μM compound + 1 μM β-FNA (MOR antagonist); for MOR agonist activity, [35S]GTPγS binding, FLNA-binding compound as agonist at 1 μM / % DAMGO (1 μM): 1 μM compound; for MOR agonist activity ([35S]GTPγS binding to Gαo), preliminary study: average of two runs
Protocol: To assess the mu opiate receptor (MOR) agonist activity of positive compounds from the FLNA screening, compounds were tested in a [^35S]GTPγS binding assay using striatal membranes. […] This assay measures a functional consequence of receptor occupancy at one of the earliest receptor-mediated events. The assay permits for traditional pharmacological parameters of potency, efficacy and antagonist affinity, with the advantage that agonist measures are not subjected to amplification or other modulation that may occur when analyzing parameters further downstream of the receptor.
Thus, striatal tissue was homogenized in 10 volumes of ice cold 25 mM HEPES buffer, pH 7.4, which contained 1 mM EGTA, 100 mM sucrose, 50 μg/ml leupeptin, 0.04 mM PMSF, 2 μg/ml soybean trypsin inhibitor and 0.2% 2-mercaptoethanol. The homogenates were centrifuged at 800×g for 5 minutes and the supernatants were centrifuged at 49,000×g for 20 minutes.
The resultant striatal membrane preparation (200 μg) was admixed and maintained (incubated) at 30° C. for 5 minutes in reaction buffer as above that additionally contained 1 mM MgCl2 and 0.5 nM [^35S]GTPγS (0.1 μCi/assay, PerkinElmer Life and Analytical Sciences) in a total volume of 250 μl and continued for 5 minutes in the absence or presence of 0.1-10 μM of an assayed compound of interest. The reaction was terminated by dilution with 750 μl of ice-cold reaction buffer that contained 20 mM MgCl2 and 1 mM EGTA and immediate centrifugation at 16,000×g for 5 minutes.
Normal rabbit serum (1 μl) was added to 1 ml of lysate and incubated at 25° C. for 30 minutes. Nonspecific immune complexes were removed by incubation with 25 μl of protein A/G-conjugated agarose beads at 25° C. for 30 minutes followed by centrifugation at 5,000×g at 4° C. for 5 minutes. The supernatant was divided and separately incubated at 25° C. for 30 minutes with antibodies raised against Gαo proteins (1:1,000 dilutions).
The immunocomplexes so formed were collected by incubation at 25° C. for 30 minutes with 40 μl of agarose-conjugated protein A/G beads and centrifugation at 5,000×g at 4° C. for 5 minutes. The pellet was washed and suspended in buffer containing 50 mM Tris-HCl, pH 8.0, and 1% NP-40. The radioactivity in the suspension was determined by liquid scintillation spectrometry.

[1] = Series C-1, 1 μM compound + BFNA relative to DAMGO + BFNA
[2] = Series C-1, 0.1 μM compound relative to DAMGO (0.1 μM)
[3] = 0.1 μM compound, relative to DAMGO
[4] = 1 μM compound + BFNA, relative to DAMGO + BFNA

T1 sequence (P33535 whole entry): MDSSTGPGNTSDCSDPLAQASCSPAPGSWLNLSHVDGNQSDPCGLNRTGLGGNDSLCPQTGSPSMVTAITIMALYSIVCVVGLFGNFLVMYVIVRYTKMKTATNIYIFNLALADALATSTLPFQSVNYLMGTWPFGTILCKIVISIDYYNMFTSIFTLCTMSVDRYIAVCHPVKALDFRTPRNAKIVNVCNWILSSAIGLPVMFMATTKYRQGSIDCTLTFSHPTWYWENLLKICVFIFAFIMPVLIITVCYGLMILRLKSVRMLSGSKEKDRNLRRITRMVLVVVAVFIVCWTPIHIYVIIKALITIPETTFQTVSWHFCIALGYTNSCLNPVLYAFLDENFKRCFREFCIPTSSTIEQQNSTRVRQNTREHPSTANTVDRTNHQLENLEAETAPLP

| SMILES | MOR agonist activity, [35S]GTPγS binding, FLNA-binding compound as agonist at 0.1 μM (0.1 μM compound) [%] | MOR agonist activity, [35S]GTPγS binding, 1 μM + BFNA [%] | MOR agonist activity, [35S]GTPγS binding, FLNA-binding compound as agonist at 1 μM [%] | also measured |
| --- | --- | --- | --- | --- |
| CCc1ccc(S(=O)(=O)N2CCOC23CCN(CC2CC2)CC3)cc1 [Compound C0135M] | 161.3 | 113.3 | 310.1 | – |
| COc1ccc(S(=O)(=O)N2CCOC23CCN(C)CC3)cc1 [Compound C0088M] | 276.3 | 177.1 | 355.3 | – |
| COc1ccc(S(=O)(=O)N2CCSC23CCNCC3)cc1 [S-C0027] | 156.2 | 56.2 | 286.8 | – |
| CCCCN1CCC2(CC1)OCCN2S(=O)(=O)c1ccc(OC)cc1 [Compound C0102M] | 131.8 | 150.4 | 272.0 | – |
| CCOC(=O)CN1CCC2(CC1)OCCN2S(=O)(=O)c1ccc(C(C)=O)cc1 [Compound C0099M] | 157.2 | 114.7 | 195.7 | % DAMGO (1 μM) (relative to DAMGO): 88.0% |
| COc1cccc(S(=O)(=O)N2CCC3(CC2)OCCN3S(=O)(=O)c2cccc(OC)c2)c1 [Compound C0002] | – | – | – | % DAMGO + BFNA [1]: 6.1% |
| CC(=O)c1ccc(S(=O)(=O)N2CC(=O)NC23CCNCC3)cc1 [Compound C0086M] | 206.8 | 152.3 | 265.3 | – |
| COc1ccc(S(=O)(=O)N2CCC3(CC2)NCCO3)cc1 [Compound C0026] | 207.2 | 21.2 | 288.4 | – |
| CC(=O)c1ccc(S(=O)(=O)N2CC(CN(C)C)OC23CCN(CC2CC2)CC3)cc1 (stereo not shown) [Compound C0128M] | 197.8 | 63.9 | 286.0 | – |
| CC(=O)Nc1ccc(S(=O)(=O)N2CCC3(CC2)OCCN3S(=O)(=O)c2ccc(NC(C)=O)cc2)cc1 [Compound C0013] | – | – | – | % DAMGO (0.1 μM) [2]: 91.0% |
| Cc1ccc(S(=O)(=O)N2CCOC23CCN(CC2CC2)CC3)cc1 [Compound C0134M] | 158.5 | 46.6 | 207.3 | MOR agonist activity ([35S]GTPγS binding to Gαo), preliminary study (0.1 μM compound as agonist): 150.7%; % DAMGO (0.1 μM) [3]: 94.6%; MOR agonist activity ([35S]GTPγS binding to Gαo), preliminary study (1 μM + βNFA): 53.2%; % DAMGO + BFNA [4]: 98.1%; MOR agonist activity ([35S]GTPγS binding to Gαo), preliminary study (1 μM compound as agonist): 224.0%; % DAMGO (1 μM) (relative to DAMGO): 93.3% |
| O=C1CN(C2CCc3ccccc3C2)C2(CCN(S(=O)(=O)c3ccccc3)CC2)N1 (stereo not shown) [C0136M (P5)] | 176.8 | 74.5 | 237.3 | – |
| O=[N+]([O-])c1ccc(S(=O)(=O)N2CCC3(CC2)NCCS3)cc1 [Compound C0044] | 173.7 | 59.1 | 280.1 | – |
| O=S(=O)(c1ccccc1Oc1ccccc1)N1CCC2(CC1)NCCO2 [Compound C0149M-2] | 209.8 | 93.4 | 406.7 | – |
| CC(=O)c1ccc(S(=O)(=O)N2CCC3(CC2)OCCN3S(C)(=O)=O)cc1 [Compound C0056] | 98.6 | 86.3 | 193.4 | % DAMGO (0.1 μM) [3]: 68.0%; % DAMGO (1 μM) (relative to DAMGO): 83.0% |
| N#Cc1ccc(S(=O)(=O)N2CCC3(CC2)OCCN3S(=O)(=O)c2ccc(C#N)cc2)cc1 [Compound C0008] | – | – | – | % DAMGO + BFNA [1]: 4.4% |
| C=CCN1CCC2(CC1)OCCN2S(=O)(=O)c1ccc(OC)cc1 [Compound C0091M] | 207.9 | 80.8 | 274.4 | – |
| CC(=O)c1ccc(S(=O)(=O)N2CCOC23CCN(CC2CC2)CC3)cc1 [Compound C0095M] | 189.1 | 107.7 | 224.6 | – |
| CC(=O)c1ccc(S(=O)(=O)N2CCOC23CCNCC3)cc1 [Compound C0046] | 286.2 | 156.8 | 492.9 | – |
| O=S(=O)(c1cccc2cccnc12)N1CCC2(CC1)OCCN2S(=O)(=O)c1cccc2cccnc12 [Compound C0143M] | 81.0 | 86.5 | 193.3 | – |
| CC(=O)c1ccc(S(=O)(=O)N2CCC3(CC2)NC(=O)CO3)cc1 [Compound C0087M] | 262.8 | 142.5 | 329.6 | % DAMGO (0.1 μM) [3]: 138.9%; % DAMGO + BFNA [4]: 293.8%; % DAMGO (1 μM) (relative to DAMGO): 132.8% |
| COc1ccc(S(=O)(=O)N2CCC3(CC2)NCCC(=O)N3)cc1 [Compound C0142M] | 143.7 | 98.7 | 192.5 | – |
| O=C1CN(Cc2ccccc2)C2(CCN(C3CCCCC3)CC2)N1 [C0137M(P7)] | 180.8 | 55.8 | 193.8 | – |
| O=C1CN(Cc2ccccc2)C2(CCNCC2)N1 [Compound C0115M] | 177.2 | 118.4 | 226.8 | – |
| Cc1cccc(S(=O)(=O)N2CCC3(CC2)OCCN3S(=O)(=O)c2cccc(C)c2)c1 [Compound C0014] | – | – | – | % DAMGO (0.1 μM) [2]: 82.0% |
| COc1ccc(NC(=O)N2CCC3(CC2)NCCO3)cc1 [Compound C0151M-2] | 346.8 | 212.8 | 397.6 | – |
| CN1CCC2(CC1)NC(=O)CN2Cc1ccccc1 [Compound C0104M] | 188.2 | 143.8 | 238.9 | – |
